In PubChem BioAssay AID2060513 (Molecular Pharmacology Branch, DTP, NCI, 2025):
pIC50: −log10 of the molar value.

System: 299254-011-R-J1-PDC complex spheroids viability
Experiment: Anticancer human tumor 299254-011-R-J1-PDC patient-derived melanoma cell line growth inhibition [GQUAD]
Conditions: for pIC50: curve of first compound; for viability, T/C: stronger effect = lower value
Method in brief: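 Multi-cell-type spheroids of tumor cells with HUVEC and mesenchymal stem cells, treated with drug combinations. Concentrations descend in half-log steps from near clinical Cmax, or from 10 microM where Cmax is unknown; viability read-out.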

[1] = second compound 0.0316 µM, first compound 0.0316 µM
[2] = second compound 0.0316 µM, first compound 0.1 µM
[3] = second compound 0.0316 µM, first compound 0.316 µM
[4] = second compound 0.0316 µM, first compound 1 µM
[5] = second compound 0.0316 µM, first compound 3.16 µM
[6] = second compound 0.0316 µM, first compound 10 µM
[7] = second compound 0.1 µM, first compound 0.0316 µM
[8] = second compound 0.1 µM, first compound 0.1 µM
[9] = second compound 0.1 µM, first compound 0.316 µM
[10] = second compound 0.1 µM, first compound 1 µM
[11] = second compound 0.1 µM, first compound 3.16 µM
[12] = second compound 0.1 µM, first compound 10 µM
[13] = second compound 0.316 µM, first compound 0.0316 µM
[14] = second compound 0.316 µM, first compound 0.1 µM
[15] = second compound 0.316 µM, first compound 0.316 µM
[16] = second compound 0.316 µM, first compound 1 µM
[17] = second compound 0.316 µM, first compound 3.16 µM
[18] = second compound 0.316 µM, first compound 10 µM
[19] = second compound 1 µM, first compound 0.0316 µM
[20] = second compound 1 µM, first compound 0.1 µM
[21] = second compound 1 µM, first compound 0.316 µM
[22] = second compound 1 µM, first compound 1 µM
[23] = second compound 1 µM, first compound 3.16 µM
[24] = second compound 1 µM, first compound 10 µM
[25] = second compound 3.16 µM, first compound 0.0316 µM
[26] = second compound 3.16 µM, first compound 0.1 µM
[27] = second compound 3.16 µM, first compound 0.316 µM
[28] = second compound 3.16 µM, first compound 1 µM
[29] = second compound 3.16 µM, first compound 3.16 µM
[30] = second compound 3.16 µM, first compound 10 µM
[31] = second compound 10 µM, first compound 0.0316 µM
[32] = second compound 10 µM, first compound 0.1 µM
[33] = second compound 10 µM, first compound 0.316 µM
[34] = second compound 10 µM, first compound 1 µM
[35] = second compound 10 µM, first compound 3.16 µM
[36] = second compound 10 µM, first compound 10 µM
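Note: spheroids exposed to the agents for seven days before readout.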
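Throughout, for viability, T/C: percent viability relative to DMSO vehicle control wells = 100%.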

## COc1ncnc(C2CC2)c1-c1ncc2cnn(Cc3ccc(-c4nc(C(F)(F)F)cn4C(C)C)cc3)c2n1 + Cc1[nH]c2ccc(F)cc2c1-c1nc2c3cccnc3c3ncccc3c2[nH]1
Second compound 0.0316 µM
  pIC50: < 5.00
Second compound 0.1 µM
  pIC50: < 5.00
Second compound 0.316 µM
  pIC50: < 5.00
Second compound 1 µM
  pIC50: < 5.00
Second compound 3.16 µM
  pIC50: < 5.00
Second compound 10 µM
  pIC50: < 5.00
[1]
  viability, T/C: 106%
[2]
  viability, T/C: 98.9%
[3]
  viability, T/C: 101%
[4]
  viability, T/C: 100%
[5]
  viability, T/C: 107%
[6]
  viability, T/C: 100%
[7]
  viability, T/C: 120%
[8]
  viability, T/C: 96.1%
[9]
  viability, T/C: 110%
[10]
  viability, T/C: 104%
[11]
  viability, T/C: 111%
[12]
  viability, T/C: 83.5%
[13]
  viability, T/C: 105%
[14]
  viability, T/C: 107%
[15]
  viability, T/C: 98.7%
[16]
  viability, T/C: 92%
[17]
  viability, T/C: 92.9%
[18]
  viability, T/C: 84.6%
[19]
  viability, T/C: 129%
[20]
  viability, T/C: 107%
[21]
  viability, T/C: 102%
[22]
  viability, T/C: 94.2%
[23]
  viability, T/C: 103%
[24]
  viability, T/C: 112%
[25]
  viability, T/C: 104%
[26]
  viability, T/C: 113%
[27]
  viability, T/C: 108%
[28]
  viability, T/C: 88.6%
[29]
  viability, T/C: 99.8%
[30]
  viability, T/C: 106%
[31]
  viability, T/C: 91%
[32]
  viability, T/C: 100%
[33]
  viability, T/C: 108%
[34]
  viability, T/C: 114%
[35]
  viability, T/C: 106%
[36]
  viability, T/C: 81.8%

## CC1COCCN1c1cc(C2(S(C)(=N)=O)CC2)nc(-c2ccnc3[nH]ccc23)n1 (stereo unspecified) + Cc1cnc(CNC(=O)c2c(=O)c3ccc(N4CCCN(C)CC4)nc3n3c2sc2ccccc23)cn1
Second compound 0.0316 µM
  pIC50: 5.78
Second compound 0.1 µM
  pIC50: 5.61
Second compound 0.316 µM
  pIC50: 5.77
Second compound 1 µM
  pIC50: 6.28
Second compound 3.16 µM
  pIC50: 6.29
Second compound 10 µM
  pIC50: > 7.50
[1]
  viability, T/C: 93%
[2]
  viability, T/C: 89.9%
[3]
  viability, T/C: 76.7%
[4]
  viability, T/C: 61.8%
[5]
  viability, T/C: 36%
[6]
  viability, T/C: 22%
[7]
  viability, T/C: 80.8%
[8]
  viability, T/C: 95.6%
[9]
  viability, T/C: 78.9%
[10]
  viability, T/C: 79.4%
[11]
  viability, T/C: 42.2%
[12]
  viability, T/C: 18.7%
[13]
  viability, T/C: 80.6%
[14]
  viability, T/C: 97.1%
[15]
  viability, T/C: 96.7%
[16]
  viability, T/C: 69.8%
[17]
  viability, T/C: 25.7%
[18]
  viability, T/C: 15.6%
[19]
  viability, T/C: 71.9%
[20]
  viability, T/C: 83.1%
[21]
  viability, T/C: 48.7%
[22]
  viability, T/C: 44.1%
[23]
  viability, T/C: 24.4%
[24]
  viability, T/C: 17.1%
[25]
  viability, T/C: 76.3%
[26]
  viability, T/C: 72.3%
[27]
  viability, T/C: 63.7%
[28]
  viability, T/C: 31.9%
[29]
  viability, T/C: 22.8%
[30]
  viability, T/C: 19.1%
[31]
  viability, T/C: 0.39%
[32]
  viability, T/C: 19.2%
[33]
  viability, T/C: 44.1%
[34]
  viability, T/C: 26.4%
[35]
  viability, T/C: 0.34%
[36]
  viability, T/C: 0.27%

## COc1ccc([C@@H](O)c2cc(-c3ncnc4cc(N5CCOCC5)ccc34)c(F)cc2Cl)nn1 + Cc1cnc(CNC(=O)c2c(=O)c3ccc(N4CCCN(C)CC4)nc3n3c2sc2ccccc23)cn1
Second compound 0.0316 µM
  pIC50: 5.12
Second compound 0.1 µM
  pIC50: 5.16
Second compound 0.316 µM
  pIC50: 5.50
Second compound 1 µM
  pIC50: 5.55
Second compound 3.16 µM
  pIC50: 5.57
Second compound 10 µM
  pIC50: > 7.50
[1]
  viability, T/C: 75.6%
[2]
  viability, T/C: 87.8%
[3]
  viability, T/C: 83.6%
[4]
  viability, T/C: 82%
[5]
  viability, T/C: 83.4%
[6]
  viability, T/C: 39.2%
[7]
  viability, T/C: 86.4%
[8]
  viability, T/C: 82.5%
[9]
  viability, T/C: 109%
[10]
  viability, T/C: 88.2%
[11]
  viability, T/C: 78.1%
[12]
  viability, T/C: 36%
[13]
  viability, T/C: 84%
[14]
  viability, T/C: 87.4%
[15]
  viability, T/C: 86.6%
[16]
  viability, T/C: 68.1%
[17]
  viability, T/C: 51.6%
[18]
  viability, T/C: 32.4%
[19]
  viability, T/C: 81.5%
[20]
  viability, T/C: 76.6%
[21]
  viability, T/C: 73%
[22]
  viability, T/C: 80%
[23]
  viability, T/C: 46.6%
[24]
  viability, T/C: 26.7%
[25]
  viability, T/C: 67.2%
[26]
  viability, T/C: 63.1%
[27]
  viability, T/C: 57.2%
[28]
  viability, T/C: 62.8%
[29]
  viability, T/C: 47.7%
[30]
  viability, T/C: 23.2%
[31]
  viability, T/C: 0.4%
[32]
  viability, T/C: 24.3%
[33]
  viability, T/C: 45.3%
[34]
  viability, T/C: 21.1%
[35]
  viability, T/C: 0.32%
[36]
  viability, T/C: 0.26%
